Test results from PMC8621570, “Mechanistic Studies of Antibiotic Adjuvants Reducing Kidney’s Bacterial Loads upon Systemic Monotherapy” (Pharmaceutics, 2021).

How the values were obtained:
[1] = Peptide self-assembly (critical aggregation concentration) by static light scattering; format: physicochemical; conditions: light scattering in PBS
Description: (§1) Peptide self-assembly was determined by static light scattering measurements as described. Hemolysis was determined by measuring hemoglobin leakage from washed human RBCs, as described. Minimal inhibitory concentration (MIC) was determined using the microdilution assay, as described. Bactericidal kinetics were determined by mixing bacteria with rifampin, OAC, or their combinations, as described. Data were obtained from three independent assays performed in duplicate.

12 GNB strains = format: cell-based; conditions: OD measurements, mean of 12 GNB strains
Description: (§2) Bacteria:Escherichia coli strains: 25922 and 35218 (ATCC, Manassas, VA, USA), 14182 (clinical isolate), Ag100 and Ag100A [34] (ΔacrAB) are two K-12 isogenic mutantsand the engineered mutant ML-35p. Additional ESKAPE species tested: Klebsiella pneumoniae strains 1287 and 224 (clinical isolates), Acinetobacter baumannii ATCC strain 19606, Pseudomonas aeruginosa ATCC strains 9027 and 27853. Bacteria were grown in Luria–Bertani (LB) broth (0.5% NaCl, 0.5% yeast extract, 1% tryptone, pH = 7), except for E. coli ML-35p that was grown in tryptic-soy broth.
as §1

[2] = tested on: Pseudomonas aeruginosa 27853; test: Sensitization to rifampin, checkerboard method; format: cell-based; conditions: adjuvant at 8 µg/mL (10 µM for C14(ω5)OOc10O), Pa 27853, LB
Description: Bacterial sensitization: Sensitization to antibiotics was determined using the checkerboard method in presence of sub-MIC OAC (2.5, 5, and 10 μM), as described. The synergistic effect of the combinations was expressed in terms of the Sensitization Factor (SF), where SF = (MIC antibiotic alone)/(MIC antibiotic upon combination). Data were obtained from three independent assays performed in duplicate.
Figure 4 Hydrophobicity dependence of antibiotics potentiation by lipopeptide analogs. Sensitization of GNB to rifampin and erythromycin (upper and lower panel, respectively) was assessed by MIC experiments performed in LB medium, in presence or absence of an OAC analog whose A2 position was gradually shortened (from c10 to c6). Pseudomonas aeruginosa 27853 (Pa, blue), Klebsiella pneumoniae 1287 (Kp, green), Escherichia coli 25922 (Ec, red), and Acinetobacter baumannii 19606 (Ab, black).

E. coli strain AG100 = test: microbe, parasite or virus in culture; format: cell-based, Escherichia coli; conditions: strain AG100
Description: as §2, §1
(§3) The wild-type E. coli strain AG100 and its isogenic ΔacrAB mutant AG100A were used to determine the MIC of OACs and of two known acrAB-TolC substrates: the AMP LL-37 and the macrolide antibiotic erythromycin that are normally inefficient against GNB.

[3] = tested on: E. coli ΔacrAB mutant AG100A; test: microbe, parasite or virus in culture; format: cell-based, Escherichia coli; conditions: isogenic ΔacrAB mutant AG100A
Description: as §2, §1, §3

E. coli 25922 = test: Dissipation of the transmembrane potential, DiSC3(5); format: cell-based, Escherichia coli; conditions: 10 μM, compared to positive control 50 µM C12K-7α8
Description: Inner Membrane Damages: Damage inflicted to the cytoplasmic membrane was assessed using 3,3-dipropylthiadicarbocyanine iodide (DiSC3(5)), a lipophilic potentiometric dye that changes its fluorescence intensity in response to changes in transmembrane potential. Bacteria were grown overnight, diluted and at mid-log were adjusted to O.D = 0.1 (600 nm), centrifuged (10,000 RCF, 5 min), and re-suspended in the assay buffer (5 mM HEPES containing 20 mM glucose, 0.2 mM EDTA, and 50 mM KCl). Then, DiSC3(5) dye was added (to final concentration 4 μM) and incubated at 37 °C for 60 min in the dark to allow dye uptake. An aliquot (180 μL) of the bacterial suspension was placed in a 96-well plate and fluorescence was monitored until baseline stabilization (excitation, 622 nm; emission, 670 nm, monitored using Synergy HT, BioTek Instruments, Winooski, VT, USA). […] Fluorescence was immediately monitored continuously for 30 min. […]
Figure 7 Evidence for proton and ATP leakage across the inner membrane. (a) Dissipation of the transmembrane potential in E. coli 25922 (8.8 ± 1.8 × 10^7 CFU/mL) pre-incubated with DiSC3(5) as determined 15 min after exposure to C14OOc12O (orange) or to C14(ω5)OOc10O (green). […] (b) Intracellular ATP concentrations were determined after 1 h incubation with C14(ω5)OOc10O (green) or C14OOc12O (orange) using E. coli 25922 at 5 × 10^7 CFU/mL. RLU, relative luminescence units.

Organ bio-distribution = format: in vivo, mouse; conditions: 3 h post single S.C 12.5 mg/kg, ICR mice, organ homogenates, LC-MS
Description: C14(ω5)OOc10O was subjected to preliminary pharmacokinetics (PK) analysis to determine its plasma concentrations or organ bio-distribution following S.C administration to non-neutropenic pathogen-free mice. OAC quantification was performed by LC-MS as follows: blood was drawn at various time intervals and plasma was separated by centrifugation (5000 RCF, 10 min). Organs were excised and homogenized. Then, OAC was extracted from both plasma and organ homogenates by incubation with 50% acetonitrile: 50% methanol at room temperature with shaking for 30 min, and subsequent centrifugation (5000 RCF, 10 min). Supernatants were diluted two-fold in distilled water and analyzed by LC-MS (ULC ultimate 3000 DIONEX, MS BRUKER Maxis impact). Quantification was based on standard calibration curves, prepared by spiking fresh mice plasma (for PK) or water (for organ bio-distribution) with various amounts of the tested OAC (final concentrations from 2.5 to 50 µg/mL) and subjected to an identical procedure as described above.
Figure 10 Systemic efficacy studies using mouse infection models. (a,b) Data points represent colony forming unit (CFU) counts harvested from infected mice (8 and 10 mice per group, respectively). […]

For `CCCCC=CCCCCCCCC(=O)N[C@@H](CCCN)C(=O)N[C@@H](CCCN)C(=O)NCCCCCCCCCC(=O)N[C@@H](CCCN)C(N)=O` [C14(ω5)OOc10O], the “CAC, critical aggregation concentration” value [1] was >100 µM, the “MIC, LB medium” value (12 GNB strains) was > 50 µM and the “Sensitization factor (rifampin MIC alone)/(rifampin MIC in combination)” value [2] was 32,000. For the same compound, the MIC (E. coli strain AG100) was 25 µM, the “MIC, Ag100A” value [3] was 6.2 µM and the “Depolarization (dissipation of the transmembrane potential)” value (E. coli 25922) was “only partial depolarization”. The “Concentration in liver and kidneys relative to lymph nodes, thighs, bladder, brain or spleen” value (Organ bio-distribution) was “at least 3 times”.
